{
  "source": "ChEMBL document CHEMBL1201862",
  "about": "“PubChem BioAssay data set” (2004)",
  "key": {"[1]": {"target": "T1, Voltage-gated N-type calcium channel alpha-1B subunit/Amyloid beta A4 precursor protein-binding family A member 1 (Homo sapiens, UniProt Q00975+Q02410)", "T1 sequence (Q00975 whole entry)": "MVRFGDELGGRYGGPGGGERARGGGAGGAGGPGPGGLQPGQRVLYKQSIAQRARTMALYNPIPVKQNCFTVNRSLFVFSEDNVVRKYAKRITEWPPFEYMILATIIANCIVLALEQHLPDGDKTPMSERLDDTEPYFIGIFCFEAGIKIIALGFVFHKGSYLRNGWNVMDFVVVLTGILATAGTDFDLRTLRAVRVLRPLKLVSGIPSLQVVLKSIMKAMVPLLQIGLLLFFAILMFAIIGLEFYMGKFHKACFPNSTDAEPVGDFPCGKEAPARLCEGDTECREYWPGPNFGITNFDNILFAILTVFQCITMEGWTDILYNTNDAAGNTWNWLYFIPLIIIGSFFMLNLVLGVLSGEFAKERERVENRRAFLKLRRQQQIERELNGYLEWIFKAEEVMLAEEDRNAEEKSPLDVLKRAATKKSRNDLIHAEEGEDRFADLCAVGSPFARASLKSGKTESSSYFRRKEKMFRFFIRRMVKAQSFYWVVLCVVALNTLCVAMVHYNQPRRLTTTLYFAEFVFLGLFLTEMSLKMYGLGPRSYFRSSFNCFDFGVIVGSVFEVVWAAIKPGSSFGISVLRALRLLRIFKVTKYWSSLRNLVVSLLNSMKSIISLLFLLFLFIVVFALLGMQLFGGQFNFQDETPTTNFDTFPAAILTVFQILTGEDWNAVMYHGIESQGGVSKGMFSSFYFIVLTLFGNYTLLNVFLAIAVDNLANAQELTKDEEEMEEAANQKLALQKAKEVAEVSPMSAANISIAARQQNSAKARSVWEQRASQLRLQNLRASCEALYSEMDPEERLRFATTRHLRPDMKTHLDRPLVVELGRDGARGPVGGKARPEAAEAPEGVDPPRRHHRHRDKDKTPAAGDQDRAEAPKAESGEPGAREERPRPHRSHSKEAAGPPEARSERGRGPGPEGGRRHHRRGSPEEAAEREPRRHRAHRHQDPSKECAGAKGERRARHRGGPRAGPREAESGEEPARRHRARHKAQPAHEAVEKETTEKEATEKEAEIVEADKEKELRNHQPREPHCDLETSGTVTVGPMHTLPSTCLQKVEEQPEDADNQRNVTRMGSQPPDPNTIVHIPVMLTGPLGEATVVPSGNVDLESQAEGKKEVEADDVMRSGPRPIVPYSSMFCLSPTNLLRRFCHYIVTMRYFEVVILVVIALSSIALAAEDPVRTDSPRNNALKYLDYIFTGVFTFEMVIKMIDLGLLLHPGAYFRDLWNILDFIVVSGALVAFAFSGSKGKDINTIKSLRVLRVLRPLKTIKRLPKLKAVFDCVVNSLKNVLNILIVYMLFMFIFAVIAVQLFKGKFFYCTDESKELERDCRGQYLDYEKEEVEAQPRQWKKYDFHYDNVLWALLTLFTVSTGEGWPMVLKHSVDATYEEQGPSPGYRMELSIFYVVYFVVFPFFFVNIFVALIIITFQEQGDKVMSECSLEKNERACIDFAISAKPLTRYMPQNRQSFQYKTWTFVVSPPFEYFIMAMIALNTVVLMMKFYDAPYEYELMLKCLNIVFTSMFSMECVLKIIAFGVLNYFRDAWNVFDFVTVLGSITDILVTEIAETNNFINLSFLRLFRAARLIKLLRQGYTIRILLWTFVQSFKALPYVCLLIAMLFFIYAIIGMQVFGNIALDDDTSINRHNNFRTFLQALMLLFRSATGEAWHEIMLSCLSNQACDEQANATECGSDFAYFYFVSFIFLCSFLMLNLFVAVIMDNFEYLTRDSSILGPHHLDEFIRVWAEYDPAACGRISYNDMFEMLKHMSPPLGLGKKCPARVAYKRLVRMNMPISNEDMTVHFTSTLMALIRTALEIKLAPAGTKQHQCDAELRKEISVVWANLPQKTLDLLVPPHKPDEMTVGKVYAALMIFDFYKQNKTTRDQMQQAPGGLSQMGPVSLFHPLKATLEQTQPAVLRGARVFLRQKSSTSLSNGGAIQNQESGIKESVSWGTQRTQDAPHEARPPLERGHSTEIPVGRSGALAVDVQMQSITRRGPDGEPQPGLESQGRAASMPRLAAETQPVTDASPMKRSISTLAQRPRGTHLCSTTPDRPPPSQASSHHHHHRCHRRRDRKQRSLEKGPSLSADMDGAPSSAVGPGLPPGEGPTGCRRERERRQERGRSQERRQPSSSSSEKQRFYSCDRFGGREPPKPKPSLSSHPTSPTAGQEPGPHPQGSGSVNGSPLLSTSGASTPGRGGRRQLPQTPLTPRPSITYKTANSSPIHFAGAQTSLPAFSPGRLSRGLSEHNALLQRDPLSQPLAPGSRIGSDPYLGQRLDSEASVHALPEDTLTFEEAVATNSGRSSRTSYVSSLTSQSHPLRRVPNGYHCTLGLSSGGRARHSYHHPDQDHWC", "T1 sequence (Q02410 whole entry)": "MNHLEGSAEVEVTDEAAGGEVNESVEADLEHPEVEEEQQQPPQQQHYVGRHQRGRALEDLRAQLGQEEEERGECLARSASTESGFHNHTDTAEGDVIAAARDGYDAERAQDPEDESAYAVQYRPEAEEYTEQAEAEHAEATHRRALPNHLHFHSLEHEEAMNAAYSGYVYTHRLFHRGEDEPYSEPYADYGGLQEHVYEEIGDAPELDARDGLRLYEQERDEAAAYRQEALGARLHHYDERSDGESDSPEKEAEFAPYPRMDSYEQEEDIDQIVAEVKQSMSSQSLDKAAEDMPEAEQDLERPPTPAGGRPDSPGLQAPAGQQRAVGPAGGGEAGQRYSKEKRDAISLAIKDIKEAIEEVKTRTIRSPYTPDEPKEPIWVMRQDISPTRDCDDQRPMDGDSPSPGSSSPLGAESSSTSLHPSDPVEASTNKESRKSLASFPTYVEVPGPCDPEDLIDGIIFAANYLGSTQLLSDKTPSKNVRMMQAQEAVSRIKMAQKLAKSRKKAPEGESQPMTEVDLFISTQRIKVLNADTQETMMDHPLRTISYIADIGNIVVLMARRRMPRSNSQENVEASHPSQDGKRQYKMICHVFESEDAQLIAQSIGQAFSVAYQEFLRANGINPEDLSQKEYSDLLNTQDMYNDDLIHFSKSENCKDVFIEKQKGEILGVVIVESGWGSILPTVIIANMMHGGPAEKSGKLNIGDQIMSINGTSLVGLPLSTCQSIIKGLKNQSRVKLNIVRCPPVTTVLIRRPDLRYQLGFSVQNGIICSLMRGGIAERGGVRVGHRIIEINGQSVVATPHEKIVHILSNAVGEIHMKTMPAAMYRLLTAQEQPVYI", "format": "protein assay"}, "[2]": {"target": "T1, Voltage-gated N-type calcium channel alpha-1B subunit/Amyloid beta A4 precursor protein-binding family A member 1", "format": "protein assay", "remark": "listed apart in the source"}, "[3]": {"target": "Beta-galactosidase (Escherichia coli, UniProt Q8VNN2)", "test": "detection-enzyme interference by beta-gal modulators – biochemical, E. coli enzyme, set 3, artefact control for CCR6 antagonist project, dose response (AID 504712)", "format": "functional"}, "[4]": {"test": "Luminescence Cell-Based Dose Confirmation HTS to Identify Inhibitors of Platelet Dense Granule Release. [Related pubchem assays: 1663 (Primary HTS), 1678 (Summary of Project)]", "format": "functional"}, "[5]": {"test": "Fluorescence-based cell-based high throughput dose response assay for inhibitors of the interaction of nucleotide-binding oligomerization domain containing 2 (NOD2) and the receptor-interacting serine-threonine kinase 2 (RIPK2).", "format": "functional", "settings": "Homo sapiens"}, "[6]": {"target": "Beta Lactamase (Pseudomonas aeruginosa, UniProt Q932Y6)", "test": "BLA reporter interference, concentration series – BLA reporter cells, FRET fluorescence, artefact control for NOD2-RIPK2 interaction inhibitor project, dose response (AID 651552)", "format": "functional, cell-based"}, "[7]": {"target": "Luciferin 4-monooxygenase (Photinus pyralis, UniProt P08659)", "sequence (P08659 whole entry)": "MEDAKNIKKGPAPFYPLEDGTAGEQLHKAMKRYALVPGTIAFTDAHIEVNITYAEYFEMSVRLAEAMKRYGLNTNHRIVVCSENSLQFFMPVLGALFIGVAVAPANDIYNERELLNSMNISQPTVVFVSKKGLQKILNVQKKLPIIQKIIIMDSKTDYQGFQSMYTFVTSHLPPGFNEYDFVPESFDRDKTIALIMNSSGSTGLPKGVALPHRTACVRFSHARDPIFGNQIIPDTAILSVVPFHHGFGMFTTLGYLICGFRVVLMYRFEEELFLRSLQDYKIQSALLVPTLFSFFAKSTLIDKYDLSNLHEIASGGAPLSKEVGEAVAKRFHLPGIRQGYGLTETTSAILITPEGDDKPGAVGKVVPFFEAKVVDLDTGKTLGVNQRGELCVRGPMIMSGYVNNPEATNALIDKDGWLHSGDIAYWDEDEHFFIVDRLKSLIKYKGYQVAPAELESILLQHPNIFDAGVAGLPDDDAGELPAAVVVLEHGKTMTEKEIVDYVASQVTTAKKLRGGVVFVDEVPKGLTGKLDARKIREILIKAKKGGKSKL", "test": "inhibition of purified Photinus pyralis luciferase – biochemical, luminescence, dose response (AID 1891)"}, "[8]": {"target": "Delta-type opioid receptor (Homo sapiens, UniProt P41143)", "test": "SAR Analysis of Antagonists of the DOR Receptor using an Image-Based Assay - Set 3. [Related pubchem assays (depositor defined):AID1777, AID1785]", "format": "functional"}, "[9]": {"target": "Mu-type opioid receptor (Homo sapiens, UniProt P35372)", "test": "SAR Analysis of Antagonists of the MOR Receptor using an Image-Based Assay - Set 3. [Related pubchem assays (depositor defined):AID1777, AID1785, AID1786, AID1966, AID2133, AID2136, AID2284, AID2285, AID2420]", "format": "functional"}, "[10]": {"target": "T2, Kappa-type opioid receptor (Homo sapiens, UniProt P41145)", "T2 sequence (P41145 whole entry)": "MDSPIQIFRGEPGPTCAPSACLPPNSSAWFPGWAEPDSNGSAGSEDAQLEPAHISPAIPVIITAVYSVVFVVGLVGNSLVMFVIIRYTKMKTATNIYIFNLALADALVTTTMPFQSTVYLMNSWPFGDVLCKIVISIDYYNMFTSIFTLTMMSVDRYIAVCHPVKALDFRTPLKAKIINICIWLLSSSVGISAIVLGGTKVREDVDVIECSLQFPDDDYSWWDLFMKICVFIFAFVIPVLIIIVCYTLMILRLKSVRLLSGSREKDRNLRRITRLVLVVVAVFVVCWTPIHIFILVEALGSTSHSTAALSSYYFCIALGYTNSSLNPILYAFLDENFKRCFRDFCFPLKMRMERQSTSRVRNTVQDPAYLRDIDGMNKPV", "test": "SAR analysis of Antagonists of the Kappa Opioid Receptor (KOR) using an Image-Based Assay - Set 4. [Related pubchem assays (depositor defined):AID1777, AID1785]", "format": "functional"}, "[11]": {"target": "T2, Kappa-type opioid receptor", "test": "SAR analysis of small molecule antagonists of the kappa opioid receptor via a luminescent beta-arrestin assay - Set 3. [Related pubchem assays (depositor defined):AID1777, AID1778, AID1785, AID1786, AID1966, AID2133, AID2136, AID2285, AID2495]", "format": "functional"}, "[12]": {"target": "T2, Kappa-type opioid receptor", "test": "SAR analysis of Antagonists of the Kappa Opioid Receptor (KOR) using an Image-Based Assay - Set 3. [Related pubchem assays (depositor defined):AID1777, AID1785]", "format": "functional"}, "[13]": {"target": "Hexokinase (Trypanosoma brucei, UniProt Q38C41)", "sequence (Q38C41 whole entry)": "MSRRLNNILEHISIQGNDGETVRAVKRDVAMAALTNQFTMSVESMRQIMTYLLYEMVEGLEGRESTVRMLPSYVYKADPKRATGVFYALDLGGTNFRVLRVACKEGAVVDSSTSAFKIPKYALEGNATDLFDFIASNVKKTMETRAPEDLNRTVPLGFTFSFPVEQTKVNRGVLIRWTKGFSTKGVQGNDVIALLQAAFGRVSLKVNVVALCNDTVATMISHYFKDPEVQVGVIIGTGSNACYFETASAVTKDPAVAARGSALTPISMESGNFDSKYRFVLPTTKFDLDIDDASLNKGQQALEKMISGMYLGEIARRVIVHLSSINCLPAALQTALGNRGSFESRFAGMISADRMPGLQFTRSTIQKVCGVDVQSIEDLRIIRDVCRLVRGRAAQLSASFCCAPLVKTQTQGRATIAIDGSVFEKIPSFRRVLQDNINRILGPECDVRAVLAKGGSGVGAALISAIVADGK", "test": "Confirmation assay for inhibitors of Trypanosoma brucei hexokinase 1-Analogue-first series. [Related pubchem assays (depositor defined):AID1430, AID1632, AID2516, AID2560, AID2579, AID2600, AID449725, AID492951]", "format": "functional"}, "[14]": {"test": "cells", "format": "functional"}, "[15]": {"test": "cells", "format": "functional, cell-based"}, "[16]": {"target": "T3, Ubiquitin-conjugating enzyme E2 N (Homo sapiens, UniProt P61088)", "T3 sequence (P61088 whole entry)": "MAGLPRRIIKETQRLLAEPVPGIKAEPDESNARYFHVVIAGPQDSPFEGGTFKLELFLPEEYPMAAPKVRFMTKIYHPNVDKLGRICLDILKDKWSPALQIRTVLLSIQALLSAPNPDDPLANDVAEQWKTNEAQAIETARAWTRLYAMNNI", "format": "functional"}, "[17]": {"test": "THP-1 cell cytotoxicity, dose response, cytotoxicity control for non-replicating M. tuberculosis project (AID 489025)", "format": "functional"}, "[18]": {"test": "Vero E6 cell cytotoxicity, dose response, cytotoxicity control for non-replicating M. tuberculosis project, secondary assay (AID 492998)", "format": "functional, VeroE6", "settings": "Vero C1008"}, "[19]": {"target": "T4, Trace amine-associated receptor 1 (Homo sapiens, UniProt Q96RJ0)", "T4 sequence (Q96RJ0 whole entry)": "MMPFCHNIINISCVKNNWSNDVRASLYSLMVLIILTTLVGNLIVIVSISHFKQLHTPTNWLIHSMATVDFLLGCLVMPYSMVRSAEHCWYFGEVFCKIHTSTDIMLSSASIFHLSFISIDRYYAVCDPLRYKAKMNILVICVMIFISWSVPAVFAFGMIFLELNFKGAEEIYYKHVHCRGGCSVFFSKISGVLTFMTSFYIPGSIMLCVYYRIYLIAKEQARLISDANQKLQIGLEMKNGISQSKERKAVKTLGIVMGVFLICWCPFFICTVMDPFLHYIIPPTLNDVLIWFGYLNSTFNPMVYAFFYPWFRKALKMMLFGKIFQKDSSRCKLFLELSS", "test": "Fluorescence-based cell-based high throughput dose response assay to identify agonists of the human trace amine associated receptor 1 (TAAR1).", "format": "functional"}, "[20]": {"test": "cells", "format": "functional, cell-based", "remark": "listed apart in the source"}, "[21]": {"target": "Nonstructural protein 1 (Influenza A virus, UniProt Q194T2)", "sequence (Q194T2 whole entry)": "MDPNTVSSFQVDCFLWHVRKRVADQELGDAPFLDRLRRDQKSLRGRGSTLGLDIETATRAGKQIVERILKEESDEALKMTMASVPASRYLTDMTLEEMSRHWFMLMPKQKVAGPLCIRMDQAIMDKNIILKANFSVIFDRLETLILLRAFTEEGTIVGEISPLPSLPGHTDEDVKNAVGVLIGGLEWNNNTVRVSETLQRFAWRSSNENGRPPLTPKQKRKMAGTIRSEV", "format": "functional, Influenza A virus (A/California/07/2009(H1N1))"}, "[22]": {"target": "DNA damage-inducible transcript 3 protein (Mus musculus, UniProt P35639)", "sequence (P35639 whole entry)": "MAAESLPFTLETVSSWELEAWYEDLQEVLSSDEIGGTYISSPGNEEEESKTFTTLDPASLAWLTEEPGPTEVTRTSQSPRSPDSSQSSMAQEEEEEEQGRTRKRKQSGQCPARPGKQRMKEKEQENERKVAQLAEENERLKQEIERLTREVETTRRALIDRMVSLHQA", "format": "functional, Cricetulus griseus"}, "[23]": {"target": "T5, DNA repair protein RAD52 homolog (Homo sapiens, UniProt P43351)", "T5 sequence (P43351 whole entry)": "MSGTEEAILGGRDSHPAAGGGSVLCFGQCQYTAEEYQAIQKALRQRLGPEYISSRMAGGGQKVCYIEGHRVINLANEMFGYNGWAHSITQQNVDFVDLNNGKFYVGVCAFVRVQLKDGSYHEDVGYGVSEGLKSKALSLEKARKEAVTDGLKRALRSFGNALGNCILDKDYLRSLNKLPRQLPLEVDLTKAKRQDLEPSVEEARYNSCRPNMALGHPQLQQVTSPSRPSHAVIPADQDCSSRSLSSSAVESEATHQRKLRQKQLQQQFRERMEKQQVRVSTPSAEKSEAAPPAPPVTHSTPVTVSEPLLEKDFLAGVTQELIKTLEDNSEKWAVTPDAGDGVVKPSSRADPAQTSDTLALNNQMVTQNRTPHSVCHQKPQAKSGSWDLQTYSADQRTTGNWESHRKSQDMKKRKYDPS", "format": "functional, biochemical"}, "[24]": {"target": "T4, Trace amine-associated receptor 1", "test": "Counterscreen for agonists of the human trace amine associated receptor 1 (hTAAR1): Fluorescence-based cell-based high throughput dose response assay to identify hTAAR1 agonist that also desensitize TAAR1 receptor response.", "format": "functional"}, "[25]": {"target": "T6, Coagulation factor XII (Homo sapiens, UniProt P00748)", "T6 sequence (P00748 whole entry)": "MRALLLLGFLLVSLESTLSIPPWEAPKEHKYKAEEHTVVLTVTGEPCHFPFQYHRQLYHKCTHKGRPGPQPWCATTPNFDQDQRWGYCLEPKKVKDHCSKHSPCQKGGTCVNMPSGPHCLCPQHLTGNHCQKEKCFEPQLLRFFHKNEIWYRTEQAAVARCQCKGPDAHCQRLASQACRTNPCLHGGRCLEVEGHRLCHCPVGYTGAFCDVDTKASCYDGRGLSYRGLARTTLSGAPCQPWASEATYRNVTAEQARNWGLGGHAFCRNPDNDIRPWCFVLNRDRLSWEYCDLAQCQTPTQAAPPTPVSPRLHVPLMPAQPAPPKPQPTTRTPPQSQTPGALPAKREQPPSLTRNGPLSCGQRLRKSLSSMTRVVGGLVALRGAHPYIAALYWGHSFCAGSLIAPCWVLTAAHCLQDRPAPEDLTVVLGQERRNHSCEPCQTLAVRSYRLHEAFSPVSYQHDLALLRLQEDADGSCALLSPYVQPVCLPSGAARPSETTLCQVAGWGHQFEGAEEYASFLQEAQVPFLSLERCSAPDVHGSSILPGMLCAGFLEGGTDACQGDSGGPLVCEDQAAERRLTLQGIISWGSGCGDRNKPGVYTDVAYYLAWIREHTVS", "test": "activated coagulation factor XII inhibitor potency, concentration-effect curve, cell-free (AID 716)", "format": "functional"}},
  "note": "Active and inactive are the calls of the source.",
  "data": [
    {"molecule": "O=C1C=C(c2ccccc2)C(=O)N1Nc1ccccc1", "values": [
      {"measurement": "IC50", "setting": "[1]", "result": "45.8 µM (active)"},
      {"measurement": "IC50", "setting": "[2]", "result": "20.4 µM (active)"},
      {"measurement": "IC50", "setting": "[3]", "result": "> 66.6 µM (inactive)"},
      {"measurement": "EC50", "setting": "[4]", "result": "8.82 µM (active)"},
      {"measurement": "IC50", "setting": "[5]", "result": "1.68 µM (active)"},
      {"measurement": "IC50", "setting": "[6]", "result": "18.7 µM (inactive)"},
      {"measurement": "EC50", "setting": "[7]", "result": "> 112 µM (not active)"}
    ]},
    {"molecule": "Cc1ccc(N2CCN(CCCNC(=O)Cn3c(=O)c4cccn4c4cccnc43)CC2)cc1", "values": [
      {"measurement": "IC50", "setting": "[8]", "result": "> 32 µM (inactive)"},
      {"measurement": "IC50", "setting": "[9]", "result": "18.8 µM (inactive)"},
      {"measurement": "IC50", "setting": "[10]", "result": "1.01 µM (active)"},
      {"measurement": "IC50", "setting": "[11]", "result": "3.68 µM (active)"},
      {"measurement": "IC50", "setting": "[12]", "result": "0.776 µM (active)"}
    ]},
    {"molecule": "COc1ccc(C(=O)NC(CC(=O)O)c2cccc(Cl)c2)cc1", "note": "(stereo not given)", "values": [
      {"measurement": "IC50", "setting": "[13]", "result": "> 25 µM (inactive)"}
    ]},
    {"molecule": "N=C(N)N/N=C/c1cn(-c2ccccc2)nc1-c1cccs1.O=[N+]([O-])O", "values": [
      {"measurement": "IC50", "setting": "[14]", "result": "11 µM (active)"},
      {"measurement": "EC50", "setting": "[15]", "result": "11.4 µM (inactive)"},
      {"measurement": "IC50", "setting": "[16]", "result": "> 20 µM (inactive)"},
      {"measurement": "CC50", "setting": "[17]", "result": "12.3 µM (active)"},
      {"measurement": "CC50", "setting": "[18]", "result": "11 µM (active)"},
      {"measurement": "EC50", "setting": "[19]", "result": "6.9 µM (active)"},
      {"measurement": "IC50", "setting": "[20]", "result": "12.2 µM (inactive)"},
      {"measurement": "IC50", "setting": "[21]", "result": "> 100 µM (active)"},
      {"measurement": "Absolute IC50 (CHOP)", "setting": "[22]", "result": 10, "unit": "µM"},
      {"measurement": "AC50", "setting": "[23]", "result": "3.85 µM (active)"},
      {"measurement": "IC50", "setting": "[24]", "result": "17.7 µM (inactive)"}
    ]},
    {"molecule": "Cc1ccc(NC(=O)C[S+]([O-])CC(=O)NCC2CCCO2)cc1", "note": "(stereo not given)", "values": [
      {"measurement": "IC50", "setting": "[25]", "result": "> 50 µM (inactive)"}
    ]}
  ]
}
